Drawing on patent publication US10907168B2, “Jasmonic acid pathway activator” (MEDICAGO INC., priority 2015, dated 2021), this text covers C5-1 yield change for one compound.

In the test the test system is C5-1 antibody. The test can be described thus: C5-1 antibody quantification by ELISA in agroinfiltrated leaves. The format is in vivo, Nicotiana benthamiana. The note with it: ELISA; 1 mM, leaves treated 24 h before infiltration. As for the experimental part:
Forty-two day-old N. benthamiana plants grown in greenhouse were used for the experiments. Each plant was sprayed evenly with 50 ml of 0.5 mM, 1 mM or 2 mM MeJA in water containing 0.1% (v/v) Triton X-100 (Sigma-Aldrich, Mississauga ON, Canada), or with 50 ml of 1 mM arachidonic acid (Girard et al., 2007) in the same solvent, and transferred for seven days in a Conviron growth chamber (Conviron, Winnipeg MB, Canada). Plants sprayed with 50 ml of 0.1% (v/v) Triton X-100 in water were used in parallel as negative controls to avoid confounding effects due to experimental conditions. Two or three 1-cm^2 leaf discs were harvested from the third main stem leaf (see Robert et al., 2013) after seven days, as source material for protein and RNA extraction. The leaf samples were frozen immediately in liquid nitrogen and stored at −80° C. until protein or RNA extraction. Three to five biological (plant) replicates were used for each treatment, to allow for statistical treatment of the data. Two gene vectors were used for the agroinfiltration assays: an engineered pcambia2300 vector encoding the light and heavy chains of C5-1 fused to an N-terminal signal peptide sequence for cellular secretion (see Goulet et al., 2012 for details on gene construct); and the original (“empty”) pcambia2300 binary vector (CAMBIA, Canberra, Australia) as a control for agroinfection. The two binary vectors were electroporated into A. tumefaciens strain LBA4404 and the cultures were maintained in Luria-Bertani (LB) medium supplemented with 50 μg/ml kanamycin and 50 μg/ml rifampicin. For infiltration, bacteria were grown to stable phase at 28° C. to an OD600 of 1.0 and collected by centrifugation at 2,000 g. The bacterial pellets were resuspended in 10 mM 2-[N-morpholino] ethanesulfonic acid] (MES) buffer, pH 5.8, containing 100 μM acetosyringone and 10 mM MgCl2. Leaf infiltration was performed using a needle-less syringe as described earlier (D'Aoust et al., 2009), after mixing the C5-1 antibody (or empty vector) agrobacterial suspension with an equal volume of bacterial suspension carrying a binary vector for the protein silencing suppressor p19 (Voinnet et al., 2003). Infiltrated tissue for molecular characterization was collected six days post-infection (i.e. seven days post-MeJA or arachidonate treatment), unless otherwise indicated. Three to five biological (plant) replicates were used for each treatment to allow for statistical analyses. ELISA plates for C5-1 antibody quantification (Becton Dickinson, Mississauga ON, Canada) were coated with 3.75 μg/ml goat anti-mouse heavy chain-specific IgG1 (Sigma-Aldrich) in 50 mM carbonate buffer (pH 9.0) at 4° C. for 16-18 h. The plates were washed three times in 10 mM phosphate-buffered saline containing 0.1% (v/v) Tween 20 (PBS-T), blocked through a 1-h incubation at 37° C. in 1% (w/v) casein in phosphate-buffered saline (PBS) (Pierce, Rockford Ill., USA), and washed three times in PBS-T. A standard curve was generated for each plate with 0, 4, 8, 16, 24, 32, 40 and 60 ng/ml of purified mouse IgG1 (Sigma-Aldrich). All dilutions (controls and samples) were performed in a control extract obtained from leaf tissue infiltrated with a mock inoculum so that any matrix effect was eliminated. The plates were incubated with protein samples for 1 h at 37° C., washed three times in PBS-T and then incubated with peroxidase-conjugated goat anti-mouse IgG (H+L) antibodies (0.02 μg/ml in blocking solution) (Jackson ImmunoResearch) for 1 h at 37° C. After additional washes with PBS-T, the plates were incubated with the 3,3′,5,5′-tetramethylbenzidine Sure Blue peroxidase substrate (KPL, Gaithersburg Md., USA). The reaction was stopped by the addition of 1 N HCl and the absorbance was read at 450 nm. Three independent (biological) replicates were used for each assay.
A general note: An ELISA detects its analyte on a solid surface through an enzyme-linked reagent.

As to `CCCCC/C=C\C/C=C\C/C=C\C/C=C\CCCC(=O)O` [arachidonic acid], the C5-1 yield change result is given as “No yield increase”.
